# From the C3SDB collision cross section collection
# Where “and” joins values, the source holds several entries; their conditions need not be identical. Equal entries are not always repeated.
# Assays:
# [1] = instrument: TW, calibrated with polyalanine
# [2] = [M-H]-; instrument: DT; stepped-field
# [3] = instrument: TW, calibrated with polyalanine; remark: listed apart in the source
# [4] = [M+H]+; instrument: DT; single field
# [5] = instrument: DT, single field, calibrated with Agilent tune mix (Agilent)
# [6] = [M+K]+; instrument: DT; stepped-field
# [7] = [M+H]+; instrument: DT; stepped-field
# [8] = instrument: TW, calibrated with phosphatidylcholines (ESI+) and phosphatidylethanolamines (ESI-)
# [9] = instrument: DT, stepped-field
# [10] = [M+H]+; instrument: DT; single field, calibrated with Agilent tune mix (Agilent)
smiles,measurement,setting,value
CC(=O)C1=C(O)[C@@H]2[C@H]3c4c[nH]c5cccc(c45)C[C@H]3C(C)(C)N2C1=O [Cyclopiazonic acid],collision cross section (N2),[1]; [M-H]-,174 Å²
CCCCCCCCCCCCCCC(=O)O [Pentadecanoic acid],collision cross section (N2),[2],165.34 Å²
OC[C@H]1OC(O)[C@H](O)[C@@H](O)[C@@H]1O (some centres not stated) [Glucose],collision cross section (N2),[3]; [M+Na]+,138 Å²
COc1cc2c(c3oc(=O)c4c(c13)CCOC4=O)C1C=COC1O2 (configuration not stated) [Aflatoxin G1],collision cross section (N2),[1]; [M+H]+,164 Å²
same,collision cross section (N2),[1]; [M+K]+,180.2 Å²
same,collision cross section (N2),[1]; [M+Na]+,176.5 Å²
CC(C)(O)[C@H]1O[C@H]2CC[C@@]3(C)[C@@](O)(CC[C@H]4Cc5c([nH]c6ccccc56)[C@@]43C)C2=CC1=O [Paxilline],collision cross section (N2),[1]; [M+H]+,201 Å²
CSCC[C@H](N)C(=O)O [Methionine],collision cross section (N2),[3]; [M+H]+,127 Å²
Nc1nc(=O)c2ncn([C@@H]3O[C@H](COP(=O)(O)O)[C@@H](O)[C@H]3O)c2[nH]1 [GMP],collision cross section (N2),[3]; [M+H]+,176 Å²
C=CC(C)(C)C12CC3C(=O)N/C(=C/c4cnc[nH]4)C(=O)N3C1Nc1ccccc12 (configuration not stated) [Roquefortine C],collision cross section (N2),[1]; [M+H]+,179 Å²
Nc1ncnc2c1ncn2[C@@H]1O[C@H](CSCC[C@H](N)C(=O)O)[C@@H](O)[C@H]1O [SAH],collision cross section (N2),[3]; [M+H]+,179 Å²
O=C(O)[C@H]1OC(O)[C@H](O)[C@@H](O)[C@@H]1O (some centres not stated) [Glucuronic acid],collision cross section (N2),[3]; [M+Na]+,140 Å²
O=C1CC[C@@H](C(=O)O)N1 [5-Oxoproline],collision cross section (N2),[3]; [M+H]+,121 Å²
CCCCCC/C=C\CCCCCCCCCC(=O)OC[C@H](COP(=O)([O-])OCC[N+](C)(C)C)OC(=O)CCCCCCC/C=C\CCCCCC [PC(34:2)],collision cross section (N2),[4],282.64 Å² and 284.2 Å²
same,collision cross section (N2),[5]; [M+HCOO]-,285.5 Å²
same,collision cross section (N2),[5]; [M+H]+,285.2 Å²
same,collision cross section (N2),[5]; [M+Na]+,289.4 Å²
same,collision cross section (N2),[6],291.3 Å²
same,collision cross section (N2),[7],302.6 Å²
same,collision cross section (N2),[8]; [M+CH3COO]-,287.7 Å²
same,collision cross section (N2),[8]; [M+H]+,281.7 Å²
Cc1cn([C@H]2C[C@H](O)[C@@H](COP(=O)(O)O)O2)c(=O)[nH]c1=O [dTMP],collision cross section (N2),[3]; [M+Na]+,170 Å²
COc1cc2c(c3oc(=O)c4c(c13)CCC4=O)[C@@H]1C=CO[C@@H]1O2 [Aflatoxin B1],collision cross section (N2),[1]; [M+H]+,161 Å²
same,collision cross section (N2),[1]; [M+K]+,177.1 Å²
same,collision cross section (N2),[1]; [M+Na]+,164 Å²
CC(C)[C@H]1C(=O)O[C@H](C(C)C)C(=O)N(C)[C@@H](C(C)C)C(=O)O[C@H](C(C)C)C(=O)N(C)[C@@H](C(C)C)C(=O)O[C@H](C(C)C)C(=O)N1C [Enniatin B],collision cross section (N2),[1]; [M+H]+,244.1 Å²
same,collision cross section (N2),[1]; [M+K]+,251.1 Å²
same,collision cross section (N2),[1]; [M+NH4]+,248 Å²
same,collision cross section (N2),[1]; [M+Na]+,248.9 Å²
C[S+](CC[C@H](N)C(=O)[O-])C[C@H]1O[C@@H](n2cnc3c(N)ncnc32)[C@H](O)[C@@H]1O (some centres not stated) [SAMe],collision cross section (N2),[3]; [M]+,184 Å²
N[C@@H](Cc1ccc(O)cc1)C(=O)O [Tyrosine],collision cross section (N2),[3]; [M+H]+,139 Å²
Nc1nc(=O)c2[nH]cnc2[nH]1 [Guanine],collision cross section (N2),[3]; [M+H]+,124 Å²
same,collision cross section (N2),[9]; [M+H]+,133.55 Å²
CCCC[C@@H](C)[C@@H](O)[C@@H](O)C[C@@H](C)C[C@H](O)CCCC[C@@H](O)C[C@H](O)[C@H](C)N [HFB1],collision cross section (N2),[1]; [M+K]+,214 Å²
same,collision cross section (N2),[1]; [M+Na]+,209.7 Å²
NC(=O)NCCC[C@H](N)C(=O)O [Citrulline],collision cross section (N2),[3]; [M+H]+,132 Å²
CC1=C[C@H]2O[C@@H]3[C@H](O)[C@@H](O)[C@](C)([C@@]2(CO)[C@H](O)C1=O)[C@]31CO1 [Nivalenol],collision cross section (N2),[1]; [M+H3C2O2]-,180 Å²
CCCC[C@@H](C)[C@@H](OC(=O)C[C@@H](CC(=O)O)C(=O)O)[C@H](C[C@@H](C)CCCCCC[C@@H](O)C[C@H](O)[C@H](C)N)OC(=O)C[C@@H](CC(=O)O)C(=O)O [Fumonisin B2],collision cross section (N2),[1]; [M+H]+,258 Å²
same,collision cross section (N2),[1]; [M+K]+,264.5 Å²
same,collision cross section (N2),[1]; [M+Na]+,259.2 Å²
CC(=O)N[C@@H]1[C@@H](O)[C@H](O)[C@@H](CO)O[C@H]1O [Acetylglucosamine],collision cross section (N2),[3]; [M+Na]+,153 Å²
CN(C)C(N)=NCCC[C@H](N)C(=O)O [ADMA],collision cross section (N2),[3]; [M+H]+,141 Å²
CC(=O)OC[C@]12[C@H](O)C(=O)C(C)=C[C@H]1O[C@@H]1[C@H](O)C[C@@]2(C)[C@]12CO2 [15-Acetyldeoxynivalenol],collision cross section (N2),[1]; [M+H3C2O2]-,196 Å²
NC(N)=NCCC[C@H](N)C(=O)O [Arginine],collision cross section (N2),[3]; [M+H]+,133 Å²
O=C(O)c1cccnc1 [Nicotinic acid],collision cross section (N2),[3]; [M+H]+,115 Å²
OCC1(O)OC[C@@H](O)[C@@H](O)[C@@H]1O (some centres not stated) [Fructose],collision cross section (N2),[3]; [M+Na]+,135 Å²
O=C(O)CC(O)(CC(=O)O)C(=O)O [Citric acid],collision cross section (N2),[3]; [M+Na]+,138 Å²
C[C@H]1CCC[C@@H](O)CCC/C=C/c2cc(O)cc(O)c2C(=O)O1 [beta-zearalenol],collision cross section (N2),[1]; [M-H]-,173 Å²
CC(=O)OC[C@]12C[C@H](OC(=O)CC(C)C)C(C)=C[C@H]1O[C@@H]1[C@H](O)[C@@H](O)[C@@]2(C)[C@]12CO2 [HT-2 toxin],collision cross section (N2),[1]; [M+NH4]+,203 Å²
O=c1ccn([C@@H]2O[C@H](COP(=O)(O)OP(=O)(O)O)[C@@H](O)[C@H]2O)c(=O)[nH]1 [UDP],collision cross section (N2),[3]; [M+H]+,174 Å²
Cc1ncc(CO)c(CN)c1O [Pyridoxamine],collision cross section (N2),[3]; [M+H]+,130 Å²
same,collision cross section (N2),[9]; [M+H]+,135.79 Å²
same,collision cross section (N2),[9]; [M+Na]+,148.49 Å²
same,collision cross section (N2),[10],134 Å²
N[C@@H]1[C@@H](O)[C@H](O)[C@@H](COP(=O)(O)O)O[C@@H]1O [Glucosamine 6-phosphate],collision cross section (N2),[3]; [M+H]+,150 Å²
CC(=O)O[C@@H]1C[C@]2(C)[C@@]3(CO)[C@H](O)C(=O)C(C)=C[C@H]3O[C@H]1[C@@]21CO1 [3-Acetyldeoxynivalenol],collision cross section (N2),[1]; [M+H3C2O2]-,196 Å²
COc1cc2c(c3oc(=O)c4c(c13)CCC4=O)[C@]1(O)C=CO[C@@H]1O2 [Aflatoxin M1],collision cross section (N2),[1]; [M+H]+,166 Å²
same,collision cross section (N2),[1]; [M+K]+,177.8 Å²
same,collision cross section (N2),[1]; [M+Na]+,179.5 Å²
C[N+](C)(C)CCO [Choline],collision cross section (N2),[3]; [M]+,117 Å²
same,collision cross section (N2),[9]; [M]+,119 Å²
same,collision cross section (N2),[10],117.8 Å²
O=c1cc[nH]c(=O)[nH]1 [Uracil],collision cross section (N2),[3]; [M+H]+,115 Å²
same,collision cross section (N2),[9]; [M+H]+,126.98 Å²
same,collision cross section (N2),[10],118.5 Å²
COc1cc2c(c3oc4cccc(O)c4c(=O)c13)[C@@H]1C=CO[C@@H]1O2 [Sterigmatocystin],collision cross section (N2),[1]; [M+H]+,163 Å²
CC1=C[C@H]2O[C@@H]3[C@H](O)C[C@](C)([C@@]2(CO)[C@H](O)C1=O)[C@]31CO1 [Deoxynivalenol],collision cross section (N2),[1]; [M+H3C2O2]-,183 Å²
N[C@@H](Cc1ccccc1)C(=O)O [Phenylalanine],collision cross section (N2),[3]; [M+H]+,135 Å²
CC[C@H](C)[C@H](N)C(=O)O [Isoleucine],collision cross section (N2),[3]; [M+H]+,129 Å²
OC[C@H]1OC(O)[C@H](O)[C@@H](O)[C@H]1O (some centres not stated) [Galactose],collision cross section (N2),[3]; [M+Na]+,136 Å²
CC1=C2C(=CO[C@H](C)[C@H]2C)C(=O)C(C(=O)O)=C1O [Citrinin],collision cross section (N2),[1]; [M+H]+,148 Å²
O=C(O)C(CO)OP(=O)(O)O (configuration not stated) [2-Phosphoglyceric acid],collision cross section (N2),[3]; [M+Na]+,132 Å²
